Measurements taken from ChEMBL document CHEMBL3399937, “(18)F-AmBF3-MJ9: a novel radiofluorinated bombesin derivative for prostate cancer imaging” (Bioorg Med Chem, 2015).

Assays:
Spleen [1] = experiment: Biodistribution in spleen of NSG mouse xenografted with human PC-3 tumor at 0.37 to 0.74 MBq, iv after 1 hr by gamma counting analysis; assay type: ADME, organism-based; conditions: in vivo
Plasma = experiment: Metabolic stability in mouse plasma after 0.5 to 2 hrs by HPLC analysis; assay type: ADME, cell-free
Lung [2] = experiment: Biodistribution in lung of NSG mouse xenografted with human PC-3 tumor at 0.37 to 0.74 MBq, iv after 0.5 hrs by gamma counting analysis; assay type: ADME, organism-based; conditions: in vivo
Mus musculus [3] = experiment: Biodistribution in seminal gland of NSG mouse xenografted with human PC-3 tumor at 0.37 to 0.74 MBq, iv after 1 hr by gamma counting analysis; assay type: ADME, organism-based; conditions: in vivo
Kidney [4] = experiment: Biodistribution in kidney of NSG mouse xenografted with human PC-3 tumor at 0.37 to 0.74 MBq, iv after 1 hr by gamma counting analysis in presence of BAY86-7548; assay type: ADME, organism-based; conditions: in vivo
Spleen [5] = experiment: Biodistribution in spleen of NSG mouse xenografted with human PC-3 tumor at 0.37 to 0.74 MBq, iv after 2 hrs by gamma counting analysis; assay type: ADME, organism-based; conditions: in vivo
Mus musculus [6] = experiment: Biodistribution in testis of NSG mouse xenografted with human PC-3 tumor at 0.37 to 0.74 MBq, iv after 2 hrs by gamma counting analysis; assay type: ADME, organism-based; conditions: in vivo
Kidney [7] = experiment: Biodistribution in kidney of NSG mouse xenografted with human PC-3 tumor at 0.37 to 0.74 MBq, iv after 1 hr by gamma counting analysis; assay type: ADME, organism-based; conditions: in vivo
Intestine [8] = experiment: Biodistribution in intestine of NSG mouse xenografted with human PC-3 tumor at 0.37 to 0.74 MBq, iv after 1 hr by gamma counting analysis; assay type: ADME, organism-based; conditions: in vivo
Intestine [9] = experiment: Biodistribution in intestine of NSG mouse xenografted with human PC-3 tumor at 0.37 to 0.74 MBq, iv after 1 hr by gamma counting analysis in presence of BAY86-7548; assay type: ADME, organism-based; conditions: in vivo
Brain [10] = experiment: Biodistribution in brain of NSG mouse xenografted with human PC-3 tumor at 0.37 to 0.74 MBq, iv after 2 hrs by gamma counting analysis; assay type: ADME, organism-based; conditions: in vivo
Lung [11] = experiment: Biodistribution in lung of NSG mouse xenografted with human PC-3 tumor at 0.37 to 0.74 MBq, iv after 1 hr by gamma counting analysis in presence of BAY86-7548; assay type: ADME, organism-based; conditions: in vivo
Blood [12] = experiment: Biodistribution in blood of NSG mouse xenografted with human PC-3 tumor at 0.37 to 0.74 MBq, iv after 2 hrs by gamma counting analysis; assay type: ADME, organism-based; conditions: in vivo
Blood [13] = experiment: Biodistribution in blood of NSG mouse xenografted with human PC-3 tumor at 0.37 to 0.74 MBq, iv after 1 hr by gamma counting analysis; assay type: ADME, organism-based; conditions: in vivo
Pancreas [14] = experiment: Biodistribution in pancreas of NSG mouse xenografted with human PC-3 tumor at 0.37 to 0.74 MBq, iv after 1 hr by gamma counting analysis; assay type: ADME, organism-based; conditions: in vivo
Brain [15] = experiment: Biodistribution in brain of NSG mouse xenografted with human PC-3 tumor at 0.37 to 0.74 MBq, iv after 0.5 hrs by gamma counting analysis; assay type: ADME, organism-based; conditions: in vivo
Bone [16] = experiment: Biodistribution in bone of NSG mouse xenografted with human PC-3 tumor at 0.37 to 0.74 MBq, iv after 2 hrs by gamma counting analysis; assay type: ADME, organism-based, Bone element; conditions: in vivo
Brain [17] = experiment: Biodistribution in brain of NSG mouse xenografted with human PC-3 tumor at 0.37 to 0.74 MBq, iv after 1 hr by gamma counting analysis; assay type: ADME, organism-based; conditions: in vivo
Kidney [18] = experiment: Biodistribution in kidney of NSG mouse xenografted with human PC-3 tumor at 0.37 to 0.74 MBq, iv after 2 hrs by gamma counting analysis; assay type: ADME, organism-based; conditions: in vivo
Bone [19] = experiment: Biodistribution in bone of NSG mouse xenografted with human PC-3 tumor at 0.37 to 0.74 MBq, iv after 0.5 hrs by gamma counting analysis; assay type: ADME, organism-based, Bone element; conditions: in vivo
Muscle tissue = experiment: Biodistribution in muscle of NSG mouse xenografted with human PC-3 tumor at 0.37 to 0.74 MBq, iv after 1 hr by gamma counting analysis; assay type: ADME, organism-based; conditions: in vivo
Liver [20] = experiment: Biodistribution in liver of NSG mouse xenografted with human PC-3 tumor at 0.37 to 0.74 MBq, iv after 2 hrs by gamma counting analysis; assay type: ADME, organism-based; conditions: in vivo
Heart [21] = experiment: Biodistribution in heart of NSG mouse xenografted with human PC-3 tumor at 0.37 to 0.74 MBq, iv after 1 hr by gamma counting analysis in presence of BAY86-7548; assay type: ADME, organism-based; conditions: in vivo
Heart [22] = experiment: Biodistribution in heart of NSG mouse xenografted with human PC-3 tumor at 0.37 to 0.74 MBq, iv after 0.5 hrs by gamma counting analysis; assay type: ADME, organism-based; conditions: in vivo
Blood [23] = experiment: Biodistribution in blood of NSG mouse xenografted with human PC-3 tumor at 0.37 to 0.74 MBq, iv after 1 hr by gamma counting analysis in presence of BAY86-7548; assay type: ADME, organism-based; conditions: in vivo
Pancreas [24] = experiment: Biodistribution in pancreas of NSG mouse xenografted with human PC-3 tumor at 0.37 to 0.74 MBq, iv after 2 hrs by gamma counting analysis; assay type: ADME, organism-based; conditions: in vivo
Liver [25] = experiment: Biodistribution in liver of NSG mouse xenografted with human PC-3 tumor at 0.37 to 0.74 MBq, iv after 0.5 hrs by gamma counting analysis; assay type: ADME, organism-based; conditions: in vivo
Lung [26] = experiment: Biodistribution in lung of NSG mouse xenografted with human PC-3 tumor at 0.37 to 0.74 MBq, iv after 1 hr by gamma counting analysis; assay type: ADME, organism-based; conditions: in vivo
Tumour = experiment: Biodistribution in tumor of NSG mouse xenografted with human PC-3 tumor at 0.37 to 0.74 MBq, iv after 0.5 hrs by gamma counting analysis; assay type: ADME, organism-based, Neoplasm; conditions: in vivo
Mus musculus [27] = experiment: Biodistribution in seminal gland of NSG mouse xenografted with human PC-3 tumor at 0.37 to 0.74 MBq, iv after 1 hr by gamma counting analysis in presence of BAY86-7548; assay type: ADME, organism-based; conditions: in vivo
Intestine [28] = experiment: Biodistribution in intestine of NSG mouse xenografted with human PC-3 tumor at 0.37 to 0.74 MBq, iv after 2 hrs by gamma counting analysis; assay type: ADME, organism-based; conditions: in vivo
Heart [29] = experiment: Biodistribution in heart of NSG mouse xenografted with human PC-3 tumor at 0.37 to 0.74 MBq, iv after 1 hr by gamma counting analysis; assay type: ADME, organism-based; conditions: in vivo

- Drug uptake (Spleen [1]): 0.33 % ID/g
- Stability (Plasma): Stable
- Drug uptake (Lung [2]): 1.96 % ID/g
- Drug uptake (Mus musculus [3]): 0.7 % ID/g
- Drug uptake (Kidney [4]): 6.66 % ID/g
- Drug uptake (Spleen [5]): 0.26 % ID/g
- Drug uptake (Mus musculus [6]): 0.13 % ID/g
- Drug uptake (Kidney [7]): 2.43 % ID/g
- Drug uptake (Intestine [8]): 6.3 % ID/g
- Drug uptake (Intestine [9]): 0.25 % ID/g
- Drug uptake (Brain [10]): 0.01 % ID/g
- Drug uptake (Lung [11]): 0.71 % ID/g
- Drug uptake (Blood [12]): 0.32 % ID/g
- Drug uptake (Blood [13]): 0.57 % ID/g
- Drug uptake (Pancreas [14]): 4.16 % ID/g
- Drug uptake (Brain [15]): 0.07 % ID/g
- Drug uptake (Bone [16]): 0.18 % ID/g
- Drug uptake (Brain [17]): 0.02 % ID/g
- Drug uptake (Kidney [18]): 1.46 % ID/g
- Drug uptake (Bone [19]): 0.7 % ID/g
- Drug uptake (Muscle tissue): 0.07 % ID/g
- Drug uptake (Liver [20]): 0.33 % ID/g
- Drug uptake (Heart [21]): 0.18 % ID/g
- Drug uptake (Heart [22]): 0.54 % ID/g
- Drug uptake (Blood [23]): 0.48 % ID/g
- Drug uptake (Pancreas [24]): 4.75 % ID/g
- Drug uptake (Liver [25]): 2.63 % ID/g
- Drug uptake (Lung [26]): 0.96 % ID/g
- Drug uptake (Tumour): 2.77 % ID/g
- Drug uptake (Mus musculus [27]): 0.12 % ID/g
- Drug uptake (Intestine [28]): 8.67 % ID/g
- Drug uptake (Heart [29]): 0.13 % ID/g
SMILES: CC(C)C[C@H](NC(=O)C[C@H](O)[C@H](CC(C)C)NC(=O)[C@H](Cc1cnc[nH]1)NC(=O)CNC(=O)[C@@H](NC(=O)[C@H](C)NC(=O)[C@H](Cc1c[nH]c2ccccc12)NC(=O)[C@H](CCC(N)=O)NC(=O)[C@@H](Cc1ccccc1)NC(=O)CN1CCC(NC(=O)Cn2cc(C[N+](C)(C)C[B-](F)(F)[17F])nn2)CC1)C(C)C)C(N)=O
